# Activity calls are given as the source filed them.
# What was measured:
# [1] = biological target: T1, Rac GTPase-activating protein 1 (Homo sapiens, UniProt Q9H0H5); assay: MgcRacGAP GTPase-activating activity inhibitors, confirmation, biochemical, ADP Hunter fluorescence, primary and confirmatory (AID 624330); assay type: functional
# T1 sequence (Q9H0H5 whole entry): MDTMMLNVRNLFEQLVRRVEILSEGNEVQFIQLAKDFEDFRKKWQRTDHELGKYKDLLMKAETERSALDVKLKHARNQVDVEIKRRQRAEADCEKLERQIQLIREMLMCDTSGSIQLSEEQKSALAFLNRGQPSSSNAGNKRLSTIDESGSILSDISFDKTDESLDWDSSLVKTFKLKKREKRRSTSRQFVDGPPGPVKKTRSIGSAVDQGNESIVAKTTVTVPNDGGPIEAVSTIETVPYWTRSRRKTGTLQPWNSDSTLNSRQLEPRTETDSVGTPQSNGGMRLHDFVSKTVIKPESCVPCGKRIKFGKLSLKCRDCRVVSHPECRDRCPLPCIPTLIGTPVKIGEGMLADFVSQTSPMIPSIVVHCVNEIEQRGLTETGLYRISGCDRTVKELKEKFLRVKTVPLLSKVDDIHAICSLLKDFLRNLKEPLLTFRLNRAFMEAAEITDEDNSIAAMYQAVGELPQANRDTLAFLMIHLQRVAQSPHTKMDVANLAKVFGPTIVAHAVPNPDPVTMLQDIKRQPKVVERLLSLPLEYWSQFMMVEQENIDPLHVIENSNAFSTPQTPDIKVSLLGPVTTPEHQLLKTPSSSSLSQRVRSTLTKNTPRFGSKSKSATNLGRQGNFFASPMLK
# [2] = Luminescence Cell-Based Dose Response HTS to Identify Activators of Luciferase Translation or Activity in H4 […] Cells. [Related pubchem assays: 1829 (Project Summary), 1814 (Primary HTS)]; assay type: functional
# H4 = assay: Luminescence Cell-Based Dose Response HTS to Identify Activators of 5'UTR Stem-Loop Driven Prion Protein mRNA Translation in H4 Neuroglioblastoma Cells. [Related pubchem assays: 1829 (Project Summary), 1814 (Primary HTS)]; assay type: functional; details: Homo sapiens
# [3] = Luminescence Cell-Based Dose Confirmation HTS to Identify Activators of 5'UTR Stem-Loop Driven Alpha-Synuclein mRNA Translation in H4 Neuroglioblastoma Cells. [Related pubchem assays: 1829 (Project Summary), 1814 (Primary HTS)]; assay type: functional
# [4] = biological target: FAD-linked sulfhydryl oxidase ALR (Homo sapiens, UniProt P55789); assay: inhibitors of human ALR sulfhydryl oxidase, dose response, biochemical, H2O2 detection, luminescence, cherry-pick (AID 493248)
# [5] = biological target: T2, Heat shock factor protein 1 (Mus musculus, UniProt P38532); assay: inhibition of MG132-induced HSE-luciferase signal, confirmation, cell-based, NIH3T3, luminescence, dose retest (AID 2382); assay type: functional;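 further: NIH3T3 fibroblasts with HSF1-driven luciferase reporter stressed by proteasome inhibitor MG132; luminescence from HSF1-driven luciferase expression after 8 hours of MG132 stress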
# T2 sequence (P38532 whole entry): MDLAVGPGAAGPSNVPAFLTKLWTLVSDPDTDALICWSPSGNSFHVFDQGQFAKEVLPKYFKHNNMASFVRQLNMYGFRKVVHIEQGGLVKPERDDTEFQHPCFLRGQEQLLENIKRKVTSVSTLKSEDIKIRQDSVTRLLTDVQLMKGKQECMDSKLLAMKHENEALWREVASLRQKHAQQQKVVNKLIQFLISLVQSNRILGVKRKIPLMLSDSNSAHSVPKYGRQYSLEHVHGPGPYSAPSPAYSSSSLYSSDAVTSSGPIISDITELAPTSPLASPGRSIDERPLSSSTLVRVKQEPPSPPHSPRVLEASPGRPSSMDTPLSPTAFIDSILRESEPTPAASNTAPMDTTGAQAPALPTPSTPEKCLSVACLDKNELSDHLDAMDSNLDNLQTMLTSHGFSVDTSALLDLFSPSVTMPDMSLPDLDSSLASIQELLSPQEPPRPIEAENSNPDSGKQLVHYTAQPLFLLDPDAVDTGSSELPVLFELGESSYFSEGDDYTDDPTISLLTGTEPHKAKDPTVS
# [6] = biological target: T2, Heat shock factor protein 1; assay: HSF1 potentiators in luciferase reporter cells, confirmation, cell-based, NIH3T3, luminescence, dose retest (AID 435004); assay type: functional;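 further: stress induced by proteasome inhibitor MG132 added 30 min after compound; luciferase reporter driven by HSF1 response element in NIH3T3 cells; actives raise luminescence as potentiators of the MG132 stress response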
# [7] = biological target: Induced myeloid leukemia cell differentiation protein Mcl-1 (Homo sapiens, UniProt Q07820); assay type: functional
# cells = assay type: functional
# Cytochrome P450 2C19 = Cytochrome P450 2C19 (Homo sapiens, UniProt P33261); assay: Cytochrome panel assay with activity outcomes. Panel member name: p450-cyp2c19 Compounds with AC50 equal or less than 10 uM are considered active; assay type: functional; details: read-out: AC50
# [8] = control 3'UTR Renilla luciferase suppression, dose response, counter-screen for Shn3 inhibitor project, cell-based, Clone20-Shn3RL, cherry-picked (AID 624133); assay type: functional
# [9] = inhibitors of firefly luciferase expression or activity, dose response, H4 neuroglioma cells, luminescence (AID 1990); assay type: functional, cell-based
# [10] = Luminescence Cell-Based Dose Response HTS to Identify Inhibitors of 5'UTR Stem-Loop Driven Prion Protein mRNA Translation in H4 Neuroglioblastoma Cells. [Related pubchem assays: 1827 (Project Summary), 1813 (Primary HTS)]; assay type: functional
# Nonstructural protein 1 = Nonstructural protein 1 (Influenza A virus, UniProt Q194T2); assay type: functional, Influenza A virus (A/California/07/2009(H1N1))
# [11] = HepG2 cell cytotoxicity, dose response, cytotoxicity control for Shn3 inhibitor project, CellTiter-Glo, cherry-picked (AID 624134); assay type: functional, cell-based
# [12] = Shn3 3'UTR reporter inhibitors, dose response, cell-based, Clone20 osteoblasts, firefly luciferase, cherry-picked (AID 624132); assay type: functional;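 further: firefly luciferase luminescence from reporter carrying the Shn3 3'UTR in osteoblasts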
# [13] = inhibitors of SNCA 5'UTR-driven reporter translation, confirmation, H4 neuroglioma cells, luminescence (AID 1988); assay type: functional, cell-based
# Cytochrome P450 3A4 = Cytochrome P450 3A4 (Homo sapiens, UniProt P08684);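 further: CYP3A4 tested as one member of a cytochrome P450 panel screen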
# Protein RecA = biological target: T3, Protein RecA (Mycobacterium tuberculosis, UniProt P9WHJ3); assay: Fluorescence Cell-Free Homogeneous Dose Retest to Identify Inhibitors of RecA-Intein Splicing Activity. [Related pubchem assays (depositor defined):AID2097, AID2223, AID489010, AID492950]; assay type: functional
# T3 sequence (P9WHJ3 whole entry): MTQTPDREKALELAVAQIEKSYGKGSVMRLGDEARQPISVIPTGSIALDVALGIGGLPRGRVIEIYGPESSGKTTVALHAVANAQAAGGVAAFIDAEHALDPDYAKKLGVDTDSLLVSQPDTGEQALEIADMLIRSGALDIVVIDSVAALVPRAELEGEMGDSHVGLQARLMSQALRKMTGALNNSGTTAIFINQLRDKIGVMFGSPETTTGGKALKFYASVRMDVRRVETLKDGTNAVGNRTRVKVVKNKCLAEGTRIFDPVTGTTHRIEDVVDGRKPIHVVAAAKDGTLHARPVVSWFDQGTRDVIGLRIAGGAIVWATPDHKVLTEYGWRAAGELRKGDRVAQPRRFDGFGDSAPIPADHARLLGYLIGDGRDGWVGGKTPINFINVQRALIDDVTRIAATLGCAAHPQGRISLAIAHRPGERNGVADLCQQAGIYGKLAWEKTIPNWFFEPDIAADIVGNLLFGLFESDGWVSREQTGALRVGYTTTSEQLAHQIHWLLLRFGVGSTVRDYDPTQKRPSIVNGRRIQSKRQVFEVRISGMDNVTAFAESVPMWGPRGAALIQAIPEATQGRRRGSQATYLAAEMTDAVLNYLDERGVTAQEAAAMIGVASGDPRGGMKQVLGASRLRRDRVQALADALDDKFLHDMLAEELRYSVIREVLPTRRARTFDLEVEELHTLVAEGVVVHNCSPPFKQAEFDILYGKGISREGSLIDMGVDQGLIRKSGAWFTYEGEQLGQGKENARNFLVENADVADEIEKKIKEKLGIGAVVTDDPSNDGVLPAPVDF
# [14] = biological target: T4, Replicative DNA helicase DnaB (Mycobacterium tuberculosis, UniProt P9WMR3); assay: DnaB intein splicing inhibitors, dose response, biochemical, cell-free fluorescence (AID 449749); assay type: functional
# T4 sequence (P9WMR3 whole entry): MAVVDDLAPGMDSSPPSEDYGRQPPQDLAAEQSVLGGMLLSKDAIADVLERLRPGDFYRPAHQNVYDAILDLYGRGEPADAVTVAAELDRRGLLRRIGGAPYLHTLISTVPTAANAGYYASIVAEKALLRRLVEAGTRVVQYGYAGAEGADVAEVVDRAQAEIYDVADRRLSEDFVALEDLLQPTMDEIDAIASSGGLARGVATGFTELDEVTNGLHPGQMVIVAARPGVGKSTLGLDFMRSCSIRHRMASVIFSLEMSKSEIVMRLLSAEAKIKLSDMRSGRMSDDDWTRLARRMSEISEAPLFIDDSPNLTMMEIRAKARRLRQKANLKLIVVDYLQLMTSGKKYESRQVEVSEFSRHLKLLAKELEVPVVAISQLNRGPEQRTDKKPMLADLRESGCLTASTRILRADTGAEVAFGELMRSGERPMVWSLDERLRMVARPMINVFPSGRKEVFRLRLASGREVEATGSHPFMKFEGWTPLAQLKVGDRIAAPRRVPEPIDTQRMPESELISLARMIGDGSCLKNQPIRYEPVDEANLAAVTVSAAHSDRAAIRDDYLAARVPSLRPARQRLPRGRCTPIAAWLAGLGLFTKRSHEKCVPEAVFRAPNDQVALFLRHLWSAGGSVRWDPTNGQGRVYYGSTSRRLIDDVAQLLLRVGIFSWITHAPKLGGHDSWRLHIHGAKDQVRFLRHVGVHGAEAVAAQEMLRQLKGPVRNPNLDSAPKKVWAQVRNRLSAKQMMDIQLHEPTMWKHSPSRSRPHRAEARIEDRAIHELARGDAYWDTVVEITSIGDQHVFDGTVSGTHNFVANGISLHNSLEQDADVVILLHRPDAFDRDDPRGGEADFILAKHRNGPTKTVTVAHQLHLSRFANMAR
# Sequence of FAD-linked sulfhydryl oxidase ALR (P55789 whole entry): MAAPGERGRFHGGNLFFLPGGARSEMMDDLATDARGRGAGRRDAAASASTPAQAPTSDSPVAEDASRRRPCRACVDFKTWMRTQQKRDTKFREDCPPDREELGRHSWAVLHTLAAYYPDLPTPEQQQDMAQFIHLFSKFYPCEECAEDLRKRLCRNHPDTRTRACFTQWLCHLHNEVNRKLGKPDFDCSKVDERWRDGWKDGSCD
# Sequence of Induced myeloid leukemia cell differentiation protein Mcl-1 (Q07820 whole entry): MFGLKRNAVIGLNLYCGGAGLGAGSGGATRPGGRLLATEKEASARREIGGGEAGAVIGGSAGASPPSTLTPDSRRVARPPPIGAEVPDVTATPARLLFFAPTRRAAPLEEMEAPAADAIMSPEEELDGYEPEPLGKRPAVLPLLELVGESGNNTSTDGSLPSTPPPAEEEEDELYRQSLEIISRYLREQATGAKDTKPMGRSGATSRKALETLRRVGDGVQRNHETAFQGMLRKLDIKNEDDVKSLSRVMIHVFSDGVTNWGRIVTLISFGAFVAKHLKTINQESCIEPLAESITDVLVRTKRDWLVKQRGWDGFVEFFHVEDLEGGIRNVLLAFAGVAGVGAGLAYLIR
# Sequence of Cytochrome P450 2C19 (P33261 whole entry): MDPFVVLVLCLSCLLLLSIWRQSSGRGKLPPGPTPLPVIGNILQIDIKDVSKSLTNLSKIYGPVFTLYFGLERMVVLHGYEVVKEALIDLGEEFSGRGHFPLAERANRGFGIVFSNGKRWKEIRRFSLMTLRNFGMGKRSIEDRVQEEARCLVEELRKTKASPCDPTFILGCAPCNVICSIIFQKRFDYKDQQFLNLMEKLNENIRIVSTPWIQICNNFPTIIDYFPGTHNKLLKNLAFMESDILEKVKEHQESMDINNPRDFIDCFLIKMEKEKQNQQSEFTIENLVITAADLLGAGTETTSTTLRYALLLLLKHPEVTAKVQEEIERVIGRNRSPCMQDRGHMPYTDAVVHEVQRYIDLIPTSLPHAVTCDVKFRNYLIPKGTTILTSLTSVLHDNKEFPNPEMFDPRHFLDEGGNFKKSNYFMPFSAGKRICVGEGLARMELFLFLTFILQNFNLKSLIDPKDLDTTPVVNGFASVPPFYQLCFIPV
# Sequence of Nonstructural protein 1 (Q194T2 whole entry): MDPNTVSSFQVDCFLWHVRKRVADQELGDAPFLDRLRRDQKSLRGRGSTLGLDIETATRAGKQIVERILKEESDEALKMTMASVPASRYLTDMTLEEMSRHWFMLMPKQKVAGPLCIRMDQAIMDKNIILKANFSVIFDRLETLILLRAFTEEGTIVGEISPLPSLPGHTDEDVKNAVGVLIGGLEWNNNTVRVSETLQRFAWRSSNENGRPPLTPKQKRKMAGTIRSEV
# Sequence of Cytochrome P450 3A4 (P08684 whole entry): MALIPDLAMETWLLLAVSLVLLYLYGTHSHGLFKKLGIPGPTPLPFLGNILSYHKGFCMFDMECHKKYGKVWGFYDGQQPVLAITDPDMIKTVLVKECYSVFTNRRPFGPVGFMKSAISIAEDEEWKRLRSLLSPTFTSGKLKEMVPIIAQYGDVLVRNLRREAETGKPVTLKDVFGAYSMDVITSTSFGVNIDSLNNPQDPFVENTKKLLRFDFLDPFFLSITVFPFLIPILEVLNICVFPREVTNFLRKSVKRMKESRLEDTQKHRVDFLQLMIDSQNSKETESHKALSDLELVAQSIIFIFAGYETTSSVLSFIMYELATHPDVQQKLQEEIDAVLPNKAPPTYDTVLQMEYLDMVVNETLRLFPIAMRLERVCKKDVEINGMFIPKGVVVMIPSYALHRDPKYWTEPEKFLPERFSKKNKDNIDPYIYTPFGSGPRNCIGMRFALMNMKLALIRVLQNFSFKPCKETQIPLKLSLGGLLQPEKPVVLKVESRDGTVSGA
smiles,measurement,setting,value
CN(C)S(=O)(=O)c1cccc(NC(=O)CNCC2CCCCC2)c1,IC50,[1],115 µM (active)
COc1ccc(OS(=O)(=O)Cc2ccccc2)cc1,EC50,[2],10.8 µM (active)
same,EC50,H4,57.5 µM (active)
same,EC50,[3],> 120 µM (not active)
COc1cccc(N2CCN(Cc3nnnn3C3CCCCC3)CC2)c1,AC50,[4],5.12 µM (active)
same,EC50,[5],> 195 µM (not active)
Cc1ccc(NC(=O)C2=C(O)c3sccc3N(C)S2(=O)=O)cc1,EC50,[2],27.2 µM (active)
same,EC50,H4,> 120 µM (not active)
same,EC50,[3],13.2 µM (active)
Cc1occc1C(=O)N1CCCC(Nc2ccc(C(C)C)cc2)C1 (stereo not drawn),AC50,[4],3.97 µM (active)
COc1ccc2cc(S(=O)(=O)N3CCCCC3)ccc2c1S(=O)(=O)N1CCCCC1,EC50,[6],> 260 µM (inactive)
CCC(C)(C)c1ccc(OC(=O)c2cccnc2Cl)cc1,EC50,[6],46.8 µM (active)
CC(C(=O)Nc1cc([N+](=O)[O-])ccc1Cl)N1CCN(c2ccc(O)cc2)CC1 (stereo not drawn),IC50,[7],4.33 µM (not active)
COCc1cc(CN2CCCC(C(=O)Nc3ccc(-c4ccco4)cc3)C2)ccc1OC (stereo not drawn),EC50,[6],> 260 µM (inactive)
Cc1oc(=O)c(NC(=O)c2ccccc2)cc1C(=O)c1ccccc1,IC50,cells,> 50 µM (active)
same,AC50,Cytochrome P450 2C19,8.91 µM (inconclusive)
Cc1ccc(Cn2cc(S(=O)(=O)c3ccc(Cl)cc3)c(=O)c3cc(F)ccc32)cc1,EC50,[6],> 260 µM (inactive)
C=CCn1c(S)nnc1-c1ccccc1[N+](=O)[O-],AC50,[4],1.69 µM (active)
CC(=O)NCCC(=O)Nc1sc2c(c1-c1nc3ccccc3[nH]1)CCCC2,AC50,[4],4.69 µM (active)
CCc1c(C)sc(NC(=O)c2ccc(Br)o2)c1C(=O)OC,EC50,[6],> 260 µM (inactive)
O=C(Oc1ccc(N(C(=O)c2ccncc2)S(=O)(=O)c2cccs2)cc1)c1ccncc1,IC50,[1],86 µM (active)
CC(=O)c1ccc(OC(=O)c2ccc(-n3nc(C)cc3C)cc2)cc1,IC50,cells,7.6 µM (active)
CC1=NN(C(=O)c2csc(C)c2C)C(O)(C(F)(F)F)C1 (stereo not drawn),IC50,cells,42.3 µM (active)
CN(CCCNC(=O)c1cccc(N2CCCC2=O)c1)c1ccccc1,AC50,[4],0.823 µM (active)
CC(C)c1ccc(Nc2nnc(SCC(=O)c3nnc(-c4ccccc4)o3)s2)cc1,IC50,[7],2.72 µM (active)
O=C(CSc1n[nH]c(-c2ccccn2)n1)Nc1cccc(Cl)c1,AC50,[8],2.9 µM (active)
same,EC50,[9],10.3 µM (active)
same,EC50,[10],8.65 µM (active)
same,IC50,Nonstructural protein 1,8.24 µM (active)
same,AC50,[11],3.81 µM (active)
same,AC50,[12],2.9 µM (active)
same,EC50,[13],9 µM (active)
CN(C)S(=O)(=O)c1cc(NC(=O)CNCCN2CCOCC2)ccc1Cl,IC50,[1],154 µM (active)
Cc1ccc(NC(=O)N/C=C/c2ccco2)cc1C,AC50,Cytochrome P450 3A4,12.6 µM (inconclusive)
same,AC50,[4],1.7 µM (active)
CN(C)c1ccc(CN(C(=O)c2ccco2)C2CCS(=O)(=O)C2)cc1 (stereo not drawn),AC50,[4],4.16 µM (active)
O=c1[nH]c(CCl)nc2cc(-c3ccc(F)cc3)sc12,EC50,Protein RecA,5.66 µM (active)
same,AC50,[14],11.7 µM (active)
same,EC50,[6],32.1 µM (active)
CC(C)(C)NC(=O)c1cccc(NC(=O)CSc2ccc(Cl)cc2)c1,EC50,[6],> 260 µM (inactive)
COc1ccccc1/C=C/C(=O)N1CCC(c2ccccc2)C1 (stereo not drawn),EC50,[2],27.8 µM (active)
same,EC50,H4,23.1 µM (active)
same,EC50,[3],9.44 µM (active)
COc1cc(-c2nc3ccccn3c2/N=C/c2cc(OC)c(O)cc2Cl)ccc1O,IC50,[1],69.7 µM (active)
Cc1ccccc1-n1c(C)cc(/C=N/NC(=O)c2ccncc2)c1C,IC50,cells,0.18 µM (active)
C/C(CC(=O)Nc1ccc(N(C)C)cc1)=N\NC(=O)c1ccc(F)cc1,IC50,[1],47.4 µM (active)
COc1cc(/C=N/NC(=O)CC(=O)NC2CCCCC2)ccc1O,IC50,[1],51.6 µM (active)
same,AC50,[4],0.175 µM (active)

# From ChEMBL document CHEMBL1201862, “PubChem BioAssay data set” (2004)
